{"source": "patent US20260216134A1", "about": "“CHARGED PI-CONJUGATED MOLECULES FOR THE TREATMENT OF MICROBIAL INFECTIONS” (priority 2023, published 2026)", "key": {"[1]": {"tested_on": "HEK293 (epithelial-like kidney cells)", "test": "Presto Blue viability assay, HEK293", "format": "cell-based, human", "conditions": "Homo sapiens, HEK293, 8 h, read-out: IC50 (concentration needed to inhibit cell viability by 50%)", "protocol": "The biocompatibility of charged pi-conjugated compounds with mammalian cell lines was evaluated by studying the effects of different charged pi-conjugated compound concentrations on the viability of two mammalian cell lines: A549 (epithelial-like lung cells) and HEK293 (epithelial-like kidney cells). […] Dose-response curves were used to determine IC50 values, that is, the concentration of charged pi-conjugated compound needed to inhibit cell viability by 50%. […] The MIC of MRSA USA300 was used to calculate the therapeutic index. MRSA USA300 is a major contributor to community-associated MRSA infections, including skin and soft tissue infections, bacteraemia, endocarditis, bone and joint infections and nosocomial infections. […]\nThe biocompatibility of charged pi-conjugated compounds with mammalian cell lines was assessed by determining their impact on the mitochondrial activity of human alveolar basal epithelial adenocarcinoma cells (A549) and human embryonic kidney cells (HEK293T) cells, using the Presto Blue assay according to the manufacturer's protocol. […] After 8 h, Presto Blue cell viability reagent (Thermo Fisher Scientific, Waltham, MA, USA) was added to the cells, and after 2 h of incubation, fluorescence was measured using a microplate reader (BioTek Instruments Inc., Winooski, VT, USA). […] The therapeutic index was calculated from the ratio between IC50 and the MIC."}, "MRSA USA300": {"tested_on": "MRSA USA300", "test": "In vivo anti-infective activity in G. mellonella infected with MRSA", "set-up": "species or system Galleria mellonella", "conditions": "10-80 μM; vehicle-treated infected worms one day", "protocol": "The in vivo anti-infective capacity of charged pi-conjugated compounds was evaluated in the invertebrate model G. mellonella infected with MRSA USA300. The survival curves shown in FIG. 21 illustrate the efficacy of two charged pi-conjugated compounds, BL 248 and BL 273, against MRSA USA300 infection in G. mellonella. With increasing concentrations of both molecules, there was a discernible improvement in survival compared with the vehicle-treated control group.\nTo evaluate the in vivo anti-infective activity of charged pi-conjugated compounds, MRSA USA300 was cultured overnight in tryptic soy broth and diluted to ~2×10^7 CFU mL^−1 in sterile phosphate-buffered saline based on OD600. Cohorts of five G. mellonella larvae (~300 mg each) were injected with 10 μL of the diluted bacterial suspension (2×10^5 […]) via the last left proleg, following larvae sterilization with 70% ethanol. One hour post-infection, the larvae were injected with increasing concentrations of charged pi-conjugated compounds or 1% DMSO (in PBS) as a negative control. Uninfected larvae were also used as controls. Larvae were incubated at 37° C., and survival was monitored afterward. Death was defined by complete melanization of the larval body and lack of movement in response to touch."}, "Gram-positive strains": {"tested_on": "Gram-positive strains", "test": "MIC / MIC50 by broth microdilution in panel of Gram-positive strains", "format": "cell-based", "conditions": "MIC50 over all Gram-positive strains tested (Table 2)", "protocol": "Antibacterial activity was assessed by determining the minimal inhibitory concentration (MIC) and the minimal bactericidal concentrations (MBC) and by monitoring time-dependent bacterial killing of exponentially growing cells. Bacterial cell suspensions (OD600≈0.02 in cation-adjusted Muller-Hinton Broth) were treated with increasing concentrations of the different molecules. The minimal inhibitory concentration (MIC) was defined as the minimal concentration of the molecule resulting in complete bacterial growth arrest. The minimal bactericidal concentration (MBC) was defined as the lowest concentration of the molecule that killed 99.9% of the inoculum. A molecule was determined to be bactericidal if the ratio of the MBC to the MIC was less than 4 to 6. […] In M. smegmatis, the antibacterial activity of charged pi-conjugated compounds was generally lower.\nThe MIC values for all Gram-positive strains tested (Table 2) were used to calculate the MIC50, i.e., the minimum inhibitory concentration needed to inhibit the growth of 50% of the tested isolates (FIG. 5A). […] When the average MIC50 values were evaluated, the most susceptible bacterial genera were Streptococcus sp., followed by Staphylococcus sp. In contrast, Propionibacterium sp. had the highest average MIC50 (FIG. 5B).\nThe broth microdilution method was used to determine the MIC of charged pi-conjugated compounds according to the CLSI guidelines. Charged pi-conjugated compound stock solutions (16 mM) were prepared in dimethyl sulfoxide (DMSO). Serial twofold dilutions of the charged pi-conjugated compounds were freshly prepared using the appropriate liquid media (Table 2), and 100 μL of each dilution was added to the appropriate wells of 96-well microtiter plates. The bacterial inoculum was further diluted in liquid media, and 100 μL was added to each well, resulting in a final cell density of ≈5×10^5 CFU mL^−1. […] A molecule was determined to be bactericidal if the ratio of the MBC to the MIC was less than 4 to 6. […]"}}}
{"smiles": "CN(C)C(=O)CN1/C(=C/C=C2C=C(/C=C/C3=[N+](CC(=O)N(C)C)c4ccc5ccccc5c4C3(C)C)CCC/2)C(C)(C)c2c1ccc1ccccc21.[Br-]", "note": "[BL 273, 3-(2-(dimethylamino)-2-oxoethyl)-2-((E)-2-((E)-3-((E)-2-(3-(2-(dimethylamino)-2-oxoethyl)-1,1-dimethyl-1,3-dihydro-2H-benzo[e]indol-2-ylidene)ethylidene)cyclohex-1-en-1-yl)vinyl)-1,1-dimethyl-1H-benzo[e]indol-3-ium]", "values": [{"measurement": "IC50", "setting": "[1]", "result": 13.7, "unit": "µM"}, {"measurement": "survival of infected worms", "setting": "MRSA USA300", "result": "three or more days"}, {"measurement": "antibacterial activity according to MIC50", "setting": "Gram-positive strains", "result": "strongest antibacterial activity"}]}
